Experimental data as given in publication PMC9112336 (ACS infectious diseases, 2022).

Assays:
Format in all cases: cell-based
[1] = test system: vesicular acidification in HEK293 cells
[2] = test system: mCherry-LAMP1 expressing HEK293 cells
[3] = test system: GFP-Rab5 expressing HEK293 cells
[4] = test system: mCherry-LAMP1 expressing HEK293 cells; remark: listed apart in the source
[5] = test system: mCherry-LAMP1 expressing HEK293 cells; remark: listed apart in the source
[6] = test system: endocytic vesicle pH in HEK293 cells

## COc1cc2c(O)c3c(c(-c4ccc5c(c4)OCO5)c2cc1OC)C(=O)OC3 [1.1, diphyllin]
[1]
  acidification activity after the 24 h washout period: 90.2 ± 11.5%
  acidification activity, initial response (immediate post washout): 57.5 ± 9.0%

## Cc1cccc(/C=N/Nc2cc(N3CCOCC3)nc(OCCc3ccccn3)n2)c1 [Apilimod, apilimod]
[2]
  effect on LAMP1+ structures compared to DMSO: significantly altered LAMP1 structures

## CO/C1=C\C(C)=C\[C@@H](C)[C@@H](O)[C@@H](C)C/C(C)=C/C=C/[C@H](OC)[C@@H]([C@@H](C)[C@@H](O)[C@H](C)[C@@]2(O)C[C@@H](O)[C@H](C)[C@@H](C(C)C)O2)OC1=O [bafilomycin, bafilomycin A1]
[3]
  average size of Rab5+ punctate vesicles: 400 nm
[4]
  average number of dilated vesicles >1 μm per cell, pre-treatment before apilimod: ~1
[5]
  average number of large, dilated vesicles per cell, treatment after apilimod: ~1
[1]
  reversibility of inhibition of vesicular acidification: full recovery of acridine orange pH-dependent shift to red was not observed
[6]
  large (>1 μm) vesicle pHrodo fluorescence: significant decrease
